Results: PubChem BioAssay (NCI)
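Cells were grown in 96-well plates and exposed to each compound for 48 hours at five concentrations; endpoints were interpolated linearly between bracketing concentrations, or set to the highest concentration if not reached. GI50 = concentration required for 50% inhibition of growth. TGI: concentration producing complete growth inhibition.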

Tests used:
Assay in all cases: NCI anticancer screen, dose series, 48 h
DU-145 prostate = test system: DU-145 prostate
HOP-62 NSCLC = test system: HOP-62 NSCLC
HT29 colon = test system: HT29 colon
M14 melanoma = test system: M14 melanoma
MDA-MB-231 breast = test system: MDA-MB-231 breast
OVCAR-8 ovarian = test system: OVCAR-8 ovarian
RPMI-8226 leukemia = test system: RPMI-8226 leukemia
SF-539 CNS = test system: SF-539 CNS
T-47D breast = test system: T-47D breast
U251 CNS = test system: U251 CNS
UACC-257 melanoma = test system: UACC-257 melanoma

Row | Structure (SMILES) | TGI (DU-145 prostate) [µM] | TGI (HOP-62 NSCLC) [µM] | TGI (HT29 colon) [µM] | TGI (M14 melanoma) [µM] | TGI (MDA-MB-231 breast) [µM] | TGI (OVCAR-8 ovarian) [µM] | TGI (RPMI-8226 leukemia) [µM] | TGI (SF-539 CNS) [µM] | TGI (T-47D breast) [µM] | TGI (U251 CNS) [µM] | TGI (UACC-257 melanoma) [µM] | GI50 (HT29 colon) [µM] | GI50 (RPMI-8226 leukemia) [µM] | GI50 (SF-539 CNS) [µM] | GI50 (U251 CNS) [µM]
1 | CC(C)(C)N(Cc1ccc2c(c1)OCO2)C(=O)/C=C\Sc1ccccc1 | > 100 | > 100 | > 100 | > 100 | > 100 | > 100 | > 100 | > 100 | > 100 | > 100 | > 100 |  |  |  | 
2 | CCc1nc2ccc(NCCN(C)C)c3c(=O)c4ccccc4n1c23 | 3.4 | 5.12 | 5.08 | 4.68 | 2.36 | 4.76 | 7.78 | 15 | 20.8 | 12.1 | 11.8 |  |  |  | 
3 | Cc1nc2ccccc2c(/C=C/c2ccc(Cl)cc2)c1C(=O)/C=C/c1ccc(Cl)cc1 |  |  | > 100 |  |  |  | 6.34 | 3.14 |  | 3.03 |  | 0.739 | 1.2 | 1.71 | 1.39
4 | Cc1ccccc1NC(=O)Cc1csc2[n+]1C(=O)/C(=C/c1ccc([N+](=O)[O-])cc1)S2 | > 100 | > 100 | > 100 | > 100 | > 100 | > 100 |  | > 100 | > 100 | > 100 | > 100 |  |  |  | 
5 | C/C1=C\C=C(\C(C)C)CC/C(C(=O)O)=C\CC/C(C)=C/CC1 | > 100 | 48 | 99 | 63.6 | 39.2 | > 100 | 42.2 | 34.8 | > 100 | 30.5 | 56.1 |  |  |  | 
6 | COc1cc2nc(-c3cccs3)[nH]c(=O)c2cc1OC | > 100 | > 100 | > 100 | > 100 | > 100 | > 100 | > 100 | > 100 | > 100 | > 100 | > 100 |  |  |  | 
7 | CCc1ccccc1NNc1cc(=O)[nH]c(=O)[nH]1 | > 100 | 35.1 | 39.3 | 35.1 | 32.3 | 51.6 | > 100 | 52.2 | 37.7 | 31.2 | 35.9 |  |  |  | 
8 | CCOC(=O)N(c1ccccc1)N(CC)C(=O)/C(C)=N/Nc1ccc([N+](=O)[O-])cc1 |  | 30 | 31 | 31.7 |  | 32.6 | 58 | 30 |  | 28.2 | 29.3 |  |  |  | 
9 | CCOC(=O)C1=COC(C)(CCc2ccccc2)CC1=O (stereo unspecified) | > 100 | > 100 | > 100 | > 100 | > 100 | > 100 | > 100 | > 100 | > 100 | > 100 | > 100 |  |  |  | 
10 | O=c1cnn(CCOCP(=O)(O)O)c(=O)[nH]1 | > 100 | > 100 | > 100 | > 100 | > 100 | > 100 | > 100 | > 100 | > 100 | > 100 | > 100 |  |  |  | 
11 | COc1cc(N(Cc2ccc3oc(=O)c(-c4ccccc4)nc3c2)Cc2ccc3oc(=O)c(-c4ccccc4)nc3c2)cc(OC)c1OC | > 10 | > 10 | > 10 | > 10 | > 10 | > 10 | > 10 | > 10 | > 10 | > 10 | > 10 |  |  |  | 
12 | COc1ccc(C(C2=C(O)COC2=O)c2cc3c(cc2O)OCO3)cc1OC (stereo unspecified) | > 100 | > 100 | > 100 | > 100 | > 100 | > 100 | > 100 | > 100 |  |  | > 100 |  |  |  | 
13 | O=[N+]([O-])c1ccc(O)c(/C=N/NC(=S)N2CCCCC2)c1 | > 52.5 | > 100 | 15 | > 100 | 52.2 | 4.66 | > 52.4 | > 100 | > 80.1 | 90.3 | 14.1 |  |  |  | 
14 | COc1ccc(/C=C/C2=NN(c3cccc(S(=O)(=O)O)c3)C3(C2)SCC(=O)N3c2nc3ccccc3s2)cc1 (stereo unspecified) | > 100 |  | > 100 | > 100 | > 100 | > 100 | 84.5 | > 100 | 87.1 | > 100 | > 100 |  |  |  | 
15 | C[C@H]1S[C@H](c2c(Cl)cccc2Cl)N2Cc3ccccc3N=C12 | 27.5 | 32.6 |  | 32.4 | > 100 |  | > 100 | 38.1 | 36.4 | > 100 | 45.6 |  |  |  | 
16 | CC(=O)Oc1ccc(/C=C/C(=O)O[C@@H](C(=O)O)[C@@H](OC(=O)/C=C/c2ccc(OC(C)=O)c(OC(C)=O)c2)C(=O)O)cc1OC(C)=O | > 100 | > 100 |  | > 100 | > 100 | > 100 | > 100 |  | > 100 | > 100 | > 100 |  |  |  | 
17 | COC(OC)[C@@H]1OC[C@@H](O)[C@@H]1n1cnc2c(N)ncnc21 | > 100 | > 100 | > 100 | > 100 | > 100 |  | > 100 | > 100 | > 100 | > 100 | > 100 |  |  |  | 
18 | O=C(NC(=S)NC(=O)c1cc(O)c(O)c(O)c1)c1cc(O)c(O)c(O)c1 | 63.8 |  | 65.5 | 98.6 | 74.1 | 44.5 | > 100 | > 100 |  | 84.9 | 44.8 |  |  |  | 
19 | CN(C)c1cc[n+](-c2nc(/N=C(\[O-])C(F)(F)F)nc3c2ncn3C2CC(O)C(CO)O2)cc1 (stereo unspecified) | > 100 | > 100 | > 100 | > 100 | > 100 | > 100 | > 100 | > 100 | > 100 | > 100 |  |  |  |  | 
20 | CCOc1cc(NC(C)=O)ccc1C(=O)NN1C(=O)CSC1c1ccccc1 (stereo unspecified) | > 100 | > 100 | > 100 | > 100 | > 100 | > 100 | > 100 | > 100 | > 100 |  | > 100 |  |  |  | 
21 | NNC(=O)c1cc(=O)[nH][nH]1 | > 100 |  | > 100 | > 100 | > 100 | > 100 | > 100 | > 100 | > 100 | > 100 | > 100 |  |  |  | 
